Source: US20220251044A1, “CRYSTAL FORM OF HYPOXIA-INDUCIBLE FACTOR-PROLYL HYDROXYLASE INHIBITOR” (CRYSTAL PHARMACEUTICAL (SUZHOU) CO., LTD., priority 2019, published 2022)
Values after ≈ are worked out from the molar mass of the structure shown. Like-named read-outs stand apart in the source and are kept apart here.

Legend:
Format in all cases: physicochemical
[1] = Kinetic solubility in SGF, FaSSIF, FeSSIF and water
Source text: The parameters for kinetic solubility tests of the present disclosure are as follows:
When solubility test is used to predict the in vivo performance of a drug, it is critical to simulate in vivo conditions as closely as possible. For oral medication, Simulated Gastric Fluid (SGF), Fasted-State Simulated Intestinal Fluid (FaSSIF), Fed-State Simulated Intestinal Fluid (FeSSIF) can be used to simulate the condition in vivo and predict the effects of feeding, thus solubility in such mediums is closer to that in vivo.
20 mg of Form CSI and 20 mg of WO2014014835 Form A were suspended into 4.0 mL of SGF, 4.0 mL of FaSSIF, 4.0 mL of FeSSIF and 4.0 mL of water to get saturated solutions. After equilibrated for 1 h, 4 h, 8 h and 24 h, the concentrations (μg/mL) of Compound I of the saturated solutions were measured by UPLC.

[2] = Physical stability on grinding (XRPD); conditions: ground manually for 5 min in a mortar
Method: Form CSI and WO2014014835 Form A was ground manually for 5 min in a mortar.

Hygroscopicity by DVS = conditions: for Weight gain under 80% RH: DVS, 25° C.
Method: Dynamic Vapor Sorption (DVS) was measured via an SMS (Surface Measurement Systems Ltd.) intrinsic DVS instrument. Its control software is DVS-Intrinsic control software. Typical parameters for DVS test are as follows: Temperature: 25° C. Gas and flow rate: N2, 200 mL/min dm/dt: 0.002%/min RH range: 0% RH to 95% RH DVS was applied to test the hygroscopicity of Form CSI and WO2014014835 Form A with about 10 mg of samples. The weight gains at each relative humidity were recorded in a cycle of 0-95%-0 RH. XRPD test was applied before and after DVS. Description and definition of hygroscopicity (general notice 9103 drug hygroscopicity test guidelines in 2015 edition of Chinese Pharmacopoeia, test at 25° C.±1° C., 80% RH. The definition of hygroscopicity in the 9th European Pharmacopoeia 5.11 is similar to the Chinese Pharmacopoeia.).

[3] = Intrinsic dissolution (IDR); conditions: for IDR: slope of data within 5-120 minutes
Method: The parameters for intrinsic dissolution tests in the present disclosure are as follows:
Approximately 100 mg of Form CSI or WO2014014835 Form A was added into the cavity of the die, and then compressed at 10 kN and held for 0.5 minute to obtain a tablet having a surface area of 0.5 cm^2. The die with the tablet still embedded was put into a dissolution apparatus to test the intrinsic dissolution. The slope (in μg/min) of the regression line was calculated according to the data within 5-120 minutes. IDR (in μg/min/cm^2) was further calculated according to the slope.

[4] = Compressibility (tablet hardness, tensile strength); conditions: 80 mg, compressed at 10 kN
Method: ENERPAC manual tablet press was used for compression. 80 mg of Form CSI and WO2014014835 Form A were weighed and added into the dies of a φ6 mm round tooling, compressed at 10 kN, then stored at room temperature for 24 h until complete elastic recovery. Hardness (H) was tested with an intelligent tablet hardness tester. Diameter (D) and thickness (L) were tested with a caliper. Tensile strength of the powder was calculated with the following formula: T=2H/πDL*9.8. Under a certain force, the greater the tensile strength, the better the compressibility.

## Cc1nc(C(=O)NCC(=O)O)c(O)c2ccc(Oc3ccccc3)cc12 [WO2014014835 Form A, [(4-hydroxy-1-methyl-7-phenoxy-isoquinoline-3-carbonyl)-amino]-acetic acid, reference compound]
[1]; FaSSIF, 1 hour
  Kinetic solubility (concentration of Compound I in saturated solution): 241.2 µg/mL
[1]; FaSSIF, thermodynamic from solid, FaSSIF, 4 hours, read-out: Kinetic solubility (concentration of Compound I in saturated solution)
  solubility kinetic at 4 h: 569 µg/mL (≈ 1620 µM)
[1]; FaSSIF, thermodynamic from solid, FaSSIF, 8 hours, read-out: Kinetic solubility (concentration of Compound I in saturated solution)
  solubility kinetic at 8 h: 567 µg/mL (≈ 1610 µM)
[1]; FaSSIF, thermodynamic from solid, FaSSIF, 24 hours, read-out: Kinetic solubility (concentration of Compound I in saturated solution)
  solubility kinetic at 24 h: 570 µg/mL (≈ 1620 µM)
[1]; FeSSIF, thermodynamic from solid, FeSSIF, 1 hour, read-out: Kinetic solubility (concentration of Compound I in saturated solution)
  solubility kinetic at 1 h: 146 µg/mL (≈ 415 µM)
[1]; FeSSIF, thermodynamic from solid, FeSSIF, 4 hours, read-out: Kinetic solubility (concentration of Compound I in saturated solution)
  solubility kinetic at 4 h: 150 µg/mL (≈ 426 µM)
[1]; FeSSIF, thermodynamic from solid, FeSSIF, 8 hours, read-out: Kinetic solubility (concentration of Compound I in saturated solution)
  solubility kinetic at 8 h: 161 µg/mL (≈ 456 µM)
[1]; FeSSIF, thermodynamic from solid, FeSSIF, 24 hours, read-out: Kinetic solubility (concentration of Compound I in saturated solution)
  solubility kinetic at 24 h: 269 µg/mL (≈ 762 µM)
[1]; SGF, 1 hour
  Kinetic solubility (concentration of Compound I in saturated solution): 3.6 µg/mL
[1]; SGF, 4 hours
  Kinetic solubility (concentration of Compound I in saturated solution): 3.7 µg/mL
[1]; SGF, 8 hours
  Kinetic solubility (concentration of Compound I in saturated solution): 3.7 µg/mL
[1]; SGF, 24 hours
  Kinetic solubility (concentration of Compound I in saturated solution): 3.6 µg/mL
[1]; water, 1 hour
  Kinetic solubility (concentration of Compound I in saturated solution): 4.7 µg/mL
[1]; water, 4 hours
  Kinetic solubility (concentration of Compound I in saturated solution): 7.9 µg/mL
[1]; water, 8 hours
  Kinetic solubility (concentration of Compound I in saturated solution): 8.4 µg/mL
[1]; water, 24 hours
  Kinetic solubility (concentration of Compound I in saturated solution): 10.1 µg/mL
[2]
  Crystalline form and crystallinity after grinding (XRPD): decreases after grinding
[2]; listed as Form A
  Crystalline form and crystallinity after grinding (XRPD): decreases after grinding
Hygroscopicity by DVS
  Weight gain under 80% RH: 0.21%
Hygroscopicity by DVS; listed as Form A
  Weight gain under 80% RH: 0.21%
Hygroscopicity by DVS; weight gain under 80% RH
  Hygroscopicity class: slightly hygroscopic
[3]; pH4.5 PBS, 5 min, 37° C., 0.5 cm^2 tablet
  Cumulative dissolution: 19.9 µg
[3]; pH4.5 PBS, 10 min
  Cumulative dissolution: 24.1 µg
[3]; pH4.5 PBS, 15 min
  Cumulative dissolution: 28.7 µg
[3]; pH4.5 PBS, 20 min
  Cumulative dissolution: 34.0 µg
[3]; pH4.5 PBS, 25 min
  Cumulative dissolution: 36.6 µg
[3]; pH4.5 PBS, 30 min
  Cumulative dissolution: 40.2 µg
[3]; pH4.5 PBS, 45 min
  Cumulative dissolution: 49.1 µg
[3]; pH4.5 PBS, 60 min
  Cumulative dissolution: 59.4 µg
[3]; pH4.5 PBS, 90 min
  Cumulative dissolution: 80.0 µg
[3]; pH4.5 PBS, 120 min
  Cumulative dissolution: 98.2 µg
[3]; pH4.5 PBS
  IDR: 1.3454 μg/min/cm^2
[3]; pH6.8 PBS, 5 min, 37° C., 0.5 cm^2 tablet
  Cumulative dissolution: 439.4 µg
[3]; pH6.8 PBS, 10 min
  Cumulative dissolution: 815.5 µg
[3]; pH6.8 PBS, 15 min
  Cumulative dissolution: 1158.2 µg
[3]; pH6.8 PBS, 20 min
  Cumulative dissolution: 1488.8 µg
[3]; pH6.8 PBS, 25 min
  Cumulative dissolution: 1800.6 µg
[3]; pH6.8 PBS, 30 min
  Cumulative dissolution: 2110.0 µg
[3]; pH6.8 PBS, 45 min
  Cumulative dissolution: 2853.7 µg
[3]; pH6.8 PBS, 60 min
  Cumulative dissolution: 3624.8 µg
[3]; pH6.8 PBS, 90 min
  Cumulative dissolution: 5068.5 µg
[3]; pH6.8 PBS, 120 min
  Cumulative dissolution: 6427.1 µg
[3]; pH6.8 PBS
  IDR: 102.8372 μg/min/cm^2
[4]; T=2H/πDL*9.8
  Tensile strength: 0.33 MPa
[4]; φ6 mm round tooling, after 24 h
  Hardness: 0.67 kgf
